Key:
Assay type in all cases: cell-based
SGK2 = molecular target: T1, SGK2 (Homo sapiens, UniProt Q9HBY8); test: SGK2 protein level in HEK293 cells, immunoblot; details: HEK293, 48 h
T1 construct: reduced endogenous SGK isoform or S6K1 expression when administered to HEK293 cells for 48 h; endogenous in cells; host or cells: HEK293
Method: (§1) A medium length linker composed of three PEG units was used in the first instance (Figure 1B and C). […] After 48 h of PROTAC treatment, cell lysates were analyzed by immunoblot analysis, and protein expression under each condition was quantified relative to the DMSO-only control. […] DAT1 reduced SGK3 expression by 60% at 1 μM and 75% at 10 μM after 48 h (Figure 1D). […] As expected, inhibition of CUL2 neddylation by means of the inhibitor MLN4924 (3 μM) or proteasome inhibition (MG132, 50 μM) blocked DAT1-induced degradation of SGK3 (Figure S1C).
(§2) All cell treatments were carried out as described in figure legends, to a final DMSO concentration of 0.1% (v/v). Lysates were quantified. Immunoblotting was performed using standard procedures, described in brief below. Lysate concentration was quantified by Bradford Assay, and 10 μg of lysate was loaded in the LDS sample buffer for SDS-PAGE electrophoresis on Novex 4–12% Bis–Tris gels. Proteins were electrophoretically transferred onto nitrocellulose membranes (Amersham Protran 0.45 μm NC; GE Healthcare) at 80 V for 80 min on ice in transfer buffer. […] The signal was produced with near-infrared secondary antibodies and detected using a Licor Biosciences Odyssey System, and the signal was quantified in Image Studio Lite.

SGK1 = molecular target: T2, SGK1 (Homo sapiens, UniProt O00141); test: SGK1 protein level in HEK293 cells, immunoblot; details: HEK293, 48 h
T2 sequence (O00141 1-431): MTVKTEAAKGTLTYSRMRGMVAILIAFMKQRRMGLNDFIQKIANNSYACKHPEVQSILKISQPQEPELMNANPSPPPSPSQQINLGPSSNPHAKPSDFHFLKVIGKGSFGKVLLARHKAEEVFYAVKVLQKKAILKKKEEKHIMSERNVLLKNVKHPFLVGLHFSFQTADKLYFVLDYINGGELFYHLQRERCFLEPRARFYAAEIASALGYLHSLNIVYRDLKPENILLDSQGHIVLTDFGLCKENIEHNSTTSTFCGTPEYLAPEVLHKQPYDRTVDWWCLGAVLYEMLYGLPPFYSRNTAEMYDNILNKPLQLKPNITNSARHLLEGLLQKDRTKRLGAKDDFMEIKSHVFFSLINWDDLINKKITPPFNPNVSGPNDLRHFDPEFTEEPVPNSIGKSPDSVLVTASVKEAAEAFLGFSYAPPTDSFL
Method: as §1, §2

SGK3 = molecular target: T3, SGK3 (Homo sapiens, UniProt Q96BR1); test: SGK3 degradation in ZR-75-1 cells, immunoblot; details: for SGK3 expression: ZR-75-1, 5 days 1 μM GDC0941 or AZD5363, 0.3 μM for 5 days or 8 h
T3 sequence (Q96BR1 1-496): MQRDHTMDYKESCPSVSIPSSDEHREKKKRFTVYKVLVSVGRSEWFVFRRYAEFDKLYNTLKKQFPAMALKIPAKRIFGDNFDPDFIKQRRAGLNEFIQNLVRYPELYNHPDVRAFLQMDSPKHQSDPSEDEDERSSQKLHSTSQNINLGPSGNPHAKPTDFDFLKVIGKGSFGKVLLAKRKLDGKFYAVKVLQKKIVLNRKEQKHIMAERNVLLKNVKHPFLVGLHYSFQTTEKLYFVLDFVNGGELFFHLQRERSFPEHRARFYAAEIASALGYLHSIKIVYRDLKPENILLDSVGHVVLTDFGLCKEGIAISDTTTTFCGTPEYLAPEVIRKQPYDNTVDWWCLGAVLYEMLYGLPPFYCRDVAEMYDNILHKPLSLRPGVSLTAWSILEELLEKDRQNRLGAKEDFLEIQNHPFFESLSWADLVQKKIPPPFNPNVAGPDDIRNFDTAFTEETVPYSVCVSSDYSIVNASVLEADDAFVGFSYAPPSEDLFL
Method: Figure 3 Characterization of cellular activities of SGK3-PROTAC1 and cisSGK3-PROTAC1. (A) HEK293 cells were first treated for 8 h with 0.03–3 μM SGK3-PROTAC1 and cisSGK3-PROTAC1. One hour before lysis, cells were treated with 3 μM AZD5363. Lysates were subjected to immunoblot analysis with the indicated antibodies. […] Lysates were subjected to immunoblot analysis with the indicated antibodies. (C) HEK293 cells were treated for up to 48 h with SGK3-PROTAC1 (0.3 μM), and lysates were analyzed by immunoblot analysis using the indicated antibodies. (D) HEK293 cells were treated for 24 h with SGK3-PROTAC1. Cells were washed three times with DMEM to wash out the compound, and recovery of SGK3 expression protein was analyzed by immunoblot analysis. (E–G) As in A except that CAMA-1 (E), ZR-75-1 (F), and JIMT-1 (G) cells were employed rather than HEK293 cells.
Figure 5 SGK3-PROTAC1-mediated degradation of SGK3 inhibits Akt-independent activation of mTORC1 in cancer cell lines treated with Akt or PI3K inhibitors. CAMA-1 (A, C) or ZR-75-1 (B, D) were treated for 5 days with 1 μM GDC0941 (A, B) or 1 μM AZD5363 (C, D). Cells were treated with the compounds indicated for either 5 days or 8 h before lysis; cells were treated with the compounds indicated. Cell lysates were subject to immunoblot analysis with the indicated antibodies.
All cell treatments were carried out as described in figure legends, to a final DMSO concentration of 0.1% (v/v). Lysates were quantified. Immunoblotting was performed using standard procedures, described in brief below. Lysate concentration was quantified by Bradford Assay, and 10 μg of lysate was loaded in the LDS sample buffer for SDS-PAGE electrophoresis on Novex 4–12% Bis–Tris gels. Proteins were electrophoretically transferred onto nitrocellulose membranes (Amersham Protran 0.45 μm NC; GE Healthcare) at 80 V for 80 min on ice in transfer buffer. Transferred membranes were blocked with 5% (w/v) nonfat dry milk dissolved in TBS-T [20 mM Tris/HCl, pH 7.5, 150 mM NaCl, and 0.1% (v/v) Tween 20] at RT for 30 min, before incubation with the primary antibody overnight at 4 °C. The signal was produced with near-infrared secondary antibodies and detected using a Licor Biosciences Odyssey System, and the signal was quantified in Image Studio Lite.

T1 sequence (Q9HBY8 whole entry, canonical isoform): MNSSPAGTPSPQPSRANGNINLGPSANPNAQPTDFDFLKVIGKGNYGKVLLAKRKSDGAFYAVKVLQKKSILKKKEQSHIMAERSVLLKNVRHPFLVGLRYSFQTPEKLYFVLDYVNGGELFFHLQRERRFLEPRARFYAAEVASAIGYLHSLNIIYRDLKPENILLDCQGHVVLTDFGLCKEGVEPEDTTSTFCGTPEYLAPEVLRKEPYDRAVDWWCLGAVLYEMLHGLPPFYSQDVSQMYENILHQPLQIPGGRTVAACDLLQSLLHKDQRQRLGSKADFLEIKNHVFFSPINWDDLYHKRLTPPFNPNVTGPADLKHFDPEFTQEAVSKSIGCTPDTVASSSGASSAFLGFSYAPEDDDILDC

SMILES	SGK2 level (SGK2; up to 10 μM)	SGK1 level (SGK1; up to 10 μM)	concentration inducing degradation of SGK3 (SGK3; ZR-75-1, 8 h)	SGK3 expression (SGK3)	SGK2 level (SGK2; 0.1 μM)	SGK1 level (SGK1; 0.1 μM)	degradation of SGK3 (SGK3; ZR-75-1, 8 h, 0.03–3 μM)
Cc1ccc(F)c(S(=O)(=O)Nc2ccc(-c3nc(OC[C@H]4CN(CCOCCOCCOCC(=O)N[C@H](C(=O)N5C[C@H](O)C[C@H]5C(=O)NCc5ccc(-c6scnc6C)cc5)C(C)(C)C)CCO4)c4cn[nH]c4n3)cc2)c1 [DAT1]	not significantly impacted	not significantly impacted					
Cc1ccc(F)c(S(=O)(=O)Nc2ccc(-c3nc(OC[C@H]4CN(CCCCCCOCCOCCOCC(=O)N[C@H](C(=O)N5C[C@H](O)C[C@H]5C(=O)NCc5ccc(-c6scnc6C)cc5)C(C)(C)C)CCO4)c4cn[nH]c4n3)cc2)c1 [SGK3-PROTAC1]			> 0.1 µM	substantially reduced	without effecting	without effecting	
Cc1ccc(F)c(S(=O)(=O)Nc2ccc(-c3nc(OC[C@H]4CN(CCCCCCOCCOCCOCC(=O)N[C@H](C(=O)N5C[C@@H](O)C[C@H]5C(=O)NCc5ccc(-c6scnc6C)cc5)C(C)(C)C)CCO4)c4cn[nH]c4n3)cc2)c1 [cisSGK3-PROTAC1]				no significant effect			no impact
